Measurements: patent US6033867A, “Fructosyl amino acid oxidase, process for producing the same, and method of assaying amadori compounds using the enzyme” (Kyoto Daiichi Kagaku Co., Ltd., priority 1995, dated 2000)

Tests used:
FAOD-A [1] = test: Effect of various inhibitors on FAOD-A activity; assay type: biochemical, A. terreus IFO6365; conditions: for inhibition of FAOD-A activity, in words: PCMB 0.1 mM, others 1 mM
Description: (§1) To an enzyme solution was added a solution containing a metal ion to be tested at a final concentration of 1 mM in 0.1 M Tris-HCl buffer (pH 8.0). After 5-minute-incubation at 30° C., the enzyme activity was assayed.
(§2) The inhibitory effect of various substances was tested in a manner substantially analogous to that described in (1) above. In the present test, the final concentration of parachloro mercuric benzoate (PCMB) is 0.1 mM while that of others 1 mM.

FAOD-A [2] = test: Effect of metal ion on the activity of FAOD-A; assay type: biochemical, A. terreus IFO6365; conditions: for effect of metal ion on FAOD-A, in words: 1 mM
Description: as §1

FAOD-L [3] = biological target: T1, FAOD-L (Aspergillus terreus, UniProt Q92204); test: Effect of metal ion on the activity of FAOD-L; assay type: biochemical, A. terreus GP1; conditions: for relative activity (%): material 1 mM, 0.1 M Tris-HCl pH 8.0, 5 min at 30° C., None = 100; for effect of metal ion on FAOD-L, in words: 1 mM
T1 construct: 94 kDa by gel filtration, 48 kDa subunit, so homodimer
Description: as §1

FAOD-L [4] = biological target: T1, FAOD-L; test: Effect of various inhibitors on FAOD-L activity; assay type: biochemical, A. terreus GP1; conditions: for inhibition of FAOD-L activity, in words: PCMB 0.1 mM, others 1 mM
Description: as §1, §2

[5] = biological target: T2, FAOD-L originated from A. terreus GP1 (Aspergillus terreus, UniProt Q92204); test: Substrate specificity of FAOD-L; assay type: biochemical
T2 construct: 94 kDa by gel filtration, 48 kDa subunit, so homodimer
T2 sequence (Q92204 1-437): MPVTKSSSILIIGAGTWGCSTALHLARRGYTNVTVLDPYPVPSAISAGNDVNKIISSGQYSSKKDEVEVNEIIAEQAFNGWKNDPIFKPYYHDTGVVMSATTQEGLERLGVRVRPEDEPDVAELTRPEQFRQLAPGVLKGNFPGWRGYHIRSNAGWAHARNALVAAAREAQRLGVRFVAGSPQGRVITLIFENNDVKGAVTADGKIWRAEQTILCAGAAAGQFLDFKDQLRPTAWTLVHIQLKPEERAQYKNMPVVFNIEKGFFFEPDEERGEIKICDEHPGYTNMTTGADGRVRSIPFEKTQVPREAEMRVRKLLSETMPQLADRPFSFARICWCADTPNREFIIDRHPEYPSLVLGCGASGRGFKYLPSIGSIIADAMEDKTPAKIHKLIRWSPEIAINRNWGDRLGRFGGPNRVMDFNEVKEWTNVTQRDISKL
Description: (§3) A 100 mM FZL solution was prepared by dissolving previously-obtained FZL in distilled water. To 100 μl of 45 mM 4-aminoantipyrine, 100 μl of 60 U/ml peroxidase, 100 μl of 60 mM phenol, 1 ml of 0.1 M Tris-HCl buffer (pH 8.0) and 50 μl of enzyme solution was added distilled water to total volume of 3.0 ml. The mixture was incubated at 30° C. for 2 minutes, 50 μl of 100 mM FZL solution was added thereto, and the time course of absorbance at 505 nm was measured. The amount (μmole) of hydrogen peroxide generated per minute was calculated on the basis of molar absorptivity (5.16×10^3 M^-1 cm^-1) of quinone pigment produced, and the resultant numerical value was taken as a unit(U) of enzyme activity.

[6] = system: FAOD-A originated from A. terreus IFO6365; test: Substrate specificity of FAOD-A; assay type: biochemical
Description: as §3

[7] = material 1 mM, 0.1 M Tris-HCl pH 8.0, 5 min at 30° C., None = 100
[8] = substrate concentration 1.67 mM

In the case of `O=C(O)CI` [Acetic iodide], the “relative activity (%)” value (FAOD-A [1]) is reported as 66%.

In the case of `[Ca+2].[Cl-].[Cl-]` [CaCl2], the “relative activity (%)” value (FAOD-A [2]; [7]) is reported as 104% and the “relative activity (%)” value (FAOD-L [3]) is reported as 96%.

In the case of `[Cl-].[Cs+]` [CsCl], the “relative activity (%)” value (FAOD-A [2]; [7]) is reported as 108%.

In the case of `O=C(O)c1cc(SSc2ccc([N+](=O)[O-])c(C(=O)O)c2)ccc1[N+](=O)[O-]` [DTNB, 5,5Dithiobis(2-nitrobenzoic acid)], the “inhibition of FAOD-A activity, in words” value (FAOD-A [1]) is reported as “inhibit the FAOD-A activity completely” and the “inhibition of FAOD-L activity, in words” value (FAOD-L [4]) is reported as “inhibit the FAOD-L activity strongly”.

In the case of `O=S(=O)([O-])[O-].[Fe+2]` [FeSO4], the “relative activity (%)” value (FAOD-L [3]) is reported as 95%.

For `[Cl-].[Li+]` [LiCl], the “relative activity (%)” value (FAOD-A [2]; [7]) was 103%.

In the case of `[Cl-].[Cl-].[Mg+2]` [MgCl2], the “relative activity (%)” value (FAOD-A [2]; [7]) is reported as 108% and the “relative activity (%)” value (FAOD-L [3]) is reported as 101%.

With `[Cl][Mn][Cl]` [MnCl2] the “effect of metal ion on FAOD-A, in words” value (FAOD-A [2]) was “inhibitory”, the “relative activity (%)” value (FAOD-A [2]; [7]) was 59% and the “relative activity (%)” value (FAOD-L [3]) was 101%.

For `O=C(N[C@@H](CCCCNCC(=O)[C@@H](O)[C@H](O)[C@H](O)CO)C(=O)O)OCc1ccccc1` [N^ε -fructosyl N^α -Z-lysine], the “Specific activity (%)” value [5, 8] was 100% and the “Specific activity (%)” value [6, 8] was 100%.

`[Cl-].[Na+]` [NaCl] was tested, and the “relative activity (%)” value (FAOD-A [2]; pH 8) was 104%.

For `[Cl-].[Rb+]` [RbCl], the “relative activity (%)” value (FAOD-A [2]; [7]) was 107%.

With `[Co]` [cobalt] the “effect of metal ion on FAOD-A, in words” value (FAOD-A [2]) was “inhibitory”.

With `[Cu+2]` [copper] the “effect of metal ion on FAOD-L, in words” value (FAOD-L [3]) was “inhibitory”.

In the case of `NN` [hydrazine], the “inhibition of FAOD-A activity, in words” value (FAOD-A [1]) is reported as “inhibit the FAOD-A activity completely” and the “inhibition of FAOD-L activity, in words” value (FAOD-L [4]) is reported as “inhibit the FAOD-L activity strongly”.

For `NO` [hydroxylamine], the “relative activity (%)” value (FAOD-A [1]; material 1 mM, None = 100) was 10% and the “relative activity (%)” value (FAOD-L [4]; material 1 mM, None = 100) was 2%.

For `c1cnc2c(c1)ccc1cccnc12` [o-Phenanthroline], the “relative activity (%)” value (FAOD-A [1]; material 1 mM, None = 100) was 62%.

With `O=C(O)c1cc[c]([Hg][Cl])cc1` [p-CMB, parachloro mercuric benzoate] the “inhibition of FAOD-A activity, in words” value (FAOD-A [1]) was “inhibit the FAOD-A activity completely” and the “inhibition of FAOD-L activity, in words” value (FAOD-L [4]) was “inhibit the FAOD-L activity strongly”.

With `NNc1ccccc1` [phenylhydrazine] the “inhibition of FAOD-A activity, in words” value (FAOD-A [1]) was “inhibit the FAOD-A activity completely”.

For `NNC(N)=O` [semicarbazide], the “relative activity (%)” value (FAOD-A [1]; material 1 mM, None = 100) was 64%.

For `[Ag+]` [silver], the “effect of metal ion on FAOD-L, in words” value (FAOD-L [3]) was “inhibited completely”.

In the case of `[Zn+2]` [zinc], the “effect of metal ion on FAOD-A, in words” value (FAOD-A [2]) is reported as “inhibited” and the “effect of metal ion on FAOD-L, in words” value (FAOD-L [3]) is reported as “inhibitory”.

In the case of `c1ccc(-c2ccccn2)nc1` [α,α-Dipyridyl], the “relative activity (%)” value (FAOD-A [1]; material 1 mM, None = 100) is reported as 67%.

Fructosyl valine was tested, and the “Specific activity (%)” value [5, 8] was 32.1% and the “Specific activity (%)” value [6, 8] was 20.5%.

In the case of N^ε -Fructosylpoly-L-lysine, the “Specific activity (%)” value ([5]; substrate concentration 0.02%) is reported as 0.30% and the “Specific activity (%)” value ([6]; substrate concentration 0.02%) is reported as 2.0%.

For mercury, the “effect of metal ion on FAOD-A, in words” value (FAOD-A [2]) was “inhibited” and the “effect of metal ion on FAOD-L, in words” value (FAOD-L [3]) was “inhibited completely”.
